# Measurements published in ChEMBL document CHEMBL1127923, “Design and synthesis of squalene synthase inhibitors - acylic mimics of the zaragazic acids” (Bioorg Med Chem Lett, 1994).
# Molecular target: T1, Squalene synthase (Rattus norvegicus) (UniProt Q02769)
# T1 sequence (whole entry): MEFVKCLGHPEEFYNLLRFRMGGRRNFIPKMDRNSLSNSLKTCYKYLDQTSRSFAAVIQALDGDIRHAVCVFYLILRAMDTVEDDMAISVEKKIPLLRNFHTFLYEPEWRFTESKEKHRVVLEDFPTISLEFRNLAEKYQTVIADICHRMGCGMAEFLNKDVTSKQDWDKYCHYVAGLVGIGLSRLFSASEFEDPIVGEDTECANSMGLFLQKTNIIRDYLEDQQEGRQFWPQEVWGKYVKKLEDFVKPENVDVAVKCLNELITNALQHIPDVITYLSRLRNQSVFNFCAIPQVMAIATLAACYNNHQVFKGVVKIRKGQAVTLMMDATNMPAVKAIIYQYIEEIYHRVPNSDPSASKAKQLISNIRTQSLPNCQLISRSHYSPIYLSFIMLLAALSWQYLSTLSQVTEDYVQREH
# Test: Inhibitory activity against squalene synthase in rat liver squalene synthase (RLSS) enzyme assay
row,SMILES,Activity [nM]
1,CC(=O)O[C@H](CCCOC(=O)C[C@@H](OC(=O)CCCCCCCCCCOc1ccccc1)C(=O)N1CCC[C@H]1C(=O)O)[C@H](C)Cc1ccccc1,> 3000
2,CC(=O)O[C@H](CCCOC(=O)C(OC(=O)CCCCCCCCCCOc1ccccc1)C(=O)O[C@H](CC(=O)O)C(=O)O)[C@H](C)Cc1ccccc1 (some centres not stated),> 3000
3,C=C(CCC12OC(C(=O)O)C(O)(C(=O)O)C(C(=O)O)(O1)[C@H](OC(=O)/C=C/[C@@H](C)C[C@@H](C)CC)[C@H]2O)[C@@H](OC(C)=O)[C@H](C)Cc1ccccc1 (some centres not stated),0.35
4,CC(=O)O[C@H](CCOC(=O)C[C@@H](OC(=O)CCCCCCCCCCOc1ccccc1)C(=O)O[C@H](CC(=O)O)C(=O)O)[C@H](C)Cc1ccccc1,200
5,CC[C@H](C)C[C@H](C)/C=C/C(=O)O[C@H](CC(=O)OCCC[C@@H](OC(=O)C(F)(F)F)[C@H](C)Cc1ccccc1)C(=O)O[C@@H](C(=O)O)[C@@H](O)C(=O)O,300
6,CC[C@H](C)C[C@H](C)/C=C/C(=O)O[C@H](CC(=O)OCCC[C@@H](OC(C)=O)[C@H](C)Cc1ccccc1)C(=O)O[C@H](CC(=O)O)C(=O)O,470
7,CC(=O)O[C@H](CCCOC(=O)C[C@@H](OC(=O)CCCCCCCCCCOc1ccccc1)C(=O)OC(C(=O)O)C(=O)O)[C@H](C)Cc1ccccc1,200
